# Measurements taken from patent US20160009752A1, “[…]-OXIMINO-AMINOALKYLETHERS AND PROCESS FOR PREPARATION THEREOF, USEFUL AS ANTIDIABETIC AND […] AGENTS” (COUNCIL OF SCIENTIFIC & INDUSTRIAL RESEARCH, priority 2013, published 2016).
# Marks after values point to notes of the source that are not given here.
# How the values were obtained:
# Type in all cases: in vivo
# [1] = test system: STZ-induced diabetic rats; assay: Streptozotocin-induced diabetic rat model (STZ); conditions: 100 mg/kg
# Method: Male albino rats (Sprague Dawley Strain) of body weight 160±20 g were procured from the colony of CDRI Animal House. 4 to 5 animals were kept in one polypropylene cage and acclimatized for one week in the new environment. The animals were made diabetic by injecting streptozotocin (STZ) intraperitoneally to the overnight starved animals at a dose of 60 mg/kg prepared in 100 mM citrate buffer (pH 4.5). Fasting blood glucose level of each animal was measured after 48 hours post STZ injection by Glucostrips (Roche) using Glucometer (ACCU-CHEK II; Roche Diagnostics, USA) and animals showing blood glucose level above 280 mg/dl were considered as diabetic. The diabetic rats with fasting blood glucose values varying between 280-450 mg/dl were included in this study. Animals were divided into groups consisting of five animals in each. Group one was considered as a control group, where as the other groups were termed as experimental groups. Rats of experimental group were usually given 100 mg/kg body weight of the test samples unless stated otherwise and standard drug i.e. metformin, respectively. The test samples and standard drug i.e. metformin was always prepared in the vehicle 1% gum acacia. 30 min post administration of the test samples/vehicle/standard drug, blood glucose levels of the animals of all the groups were measured at 30, 60, 90, 120, 180, 240, 300 and 1440 min. Food (not water) was removed from the cages during the experimental period. A plot was drawn between time and blood glucose levels on x and y axis, respectively and the area under curve (AUC) between 0 to 300 min were calculated of each group. The percent decline in AUC of the experiment group compared to sham treated control group termed as % antihyperglycaemic activity. Statistical comparison between the groups was done by employing Student's ‘t’ test.
# db/db mice = assay: db/db mice: blood glucose, OGTT, serum lipid and insulin; conditions: for decrease in plasma insulin levels / enhancement of HDL-cholesterol level / lowering of serum triglycerides level (TG) / lowering of total cholesterol (T-Chol) level: 15 days
# Method: Male C57BL/KsJ-db/db mice (8 to 12 weeks old, 35-45 g body weight) were procured from National Animal Laboratory Centre (NALC) of Central Drug Research Institute (CDRI), Lucknow, India. Animals were housed in polypropylene cages, in controlled environment (temperature 25±2° C.; humidity 50-60%; light 300 lux at floor level with regular 12 h light-12 h dark cycle; noise level 50 decibel; ventilation 10-15 air changes per hour). They were provided with a standard laboratory diet (Dayal Industry, Barabanki, Lucknow) unless stated otherwise and had free access to water. The animals were allocated into groups of 5 animals in each. Prior to start of the test sample feeding, a vehicle training period was followed from day −3 to day 0 during which all the animals were given vehicle (1% gum acacia) at a dose volume of 10 ml/kg body weight. At day 0 the animals having blood glucose level between 180 to 300 mg/di were selected and divided into three groups containing 5 animals in each. One group was considered as control group while the other group one was treatment group. The treatment groups were given suspensions of 14b at 1.0 and 3.0 mg/kg body weight, dose, respectively. The control group was given an equal amount of vehicle. All the animals had free access to fresh water and normal diet. Random blood glucose of each mouse was checked daily at 11.00. […] Blood has been withdrawn from the retro-orbital plexus of mice eye for the estimation of lipid profile and insulin.
# In type 2 diabetes, elevated blood glucose level due to defect in peripheral glucose disposal results in hyperglycaemia. To observe the improvement on hyperglycaemia 14b was orally gavaged for 15 consecutive days and after dosing blood glucose of control and treated group were measured.
# [2] = test system: high fructose high fat fed Syrian golden hamsters; assay: Antidyslipidemic activity in high fructose high fat fed Syrian golden hamsters
# Method: Male Syrian golden hamsters weighing 100-120 g were divided into groups each containing six animals. Dyslipidemia was produced by feeding the animals with high fructose high fat diet (60% fructose, 13% fat) for 30 to 40 days. Dyslipidemic hamsters were divided into groups based on their Serum lipid profile. The dyslipidemic animals had free access to HFD and water throughout the experimental period. The fine suspension of 14b was fed orally at a dose of 30 mg/kg for 7 days to the animals. Control animals were given drug vehicle only, served as sham treated control. Body weight and diet intake of each animal group were recorded daily to check the effect of the test samples on food intake and body weight of the animals. At the end of the experiment period i.e. on day 8th, the blood of each animal was withdrawn from retro-orbital plexus. After keeping the tubes for 15 min. in cold, Serum was separated. Biochemical analysis of Serum was performed on the same day for triglycerides (TG), total cholesterol (TC) and HDL-cholesterol and LDL-cholesterol contents using Cobas Integra 400 plus analyzer kits. All statistical analysis will be performed with Graph Pad Prism Software. One way ANOVA, all pair wise multiple comparison procedure (Tukey test). Data will be reported as mean±SEM.
smiles,measurement,setting,value
"C/C(=N\OCCN1CCCCC1)[C@H]1CC[C@H]2[C@@H]3CC=C4C[C@@H](O)CC[C@]4(C)[C@H]3CC[C@]12C [Compound 14b, 3β-Hydroxy-pregna-5-en-20-one-O-(2-piperidin-1-yl-ethyl)-oxime]","Blood glucose level, 0 min post sucrose load",[1],357.4 ± 17.9 mg/dL
same,"Blood glucose level, 30 min post sucrose load",[1],353.8 ± 6.3 mg/dL
same,"Blood glucose level, 60 min post sucrose load",[1],387.0 ± 20.8 mg/dL
same,"Blood glucose level, 90 min post sucrose load",[1],374.4 ± 23.1 mg/dL
same,"Blood glucose level, 120 min post sucrose load",[1],375.0 ± 20.2 mg/dL
same,"Blood glucose level, 180 min post sucrose load",[1],366.6 ± 16.7 mg/dL
same,"Blood glucose level, 240 min post sucrose load",[1],333.0 ± 11.7 mg/dL
same,"Blood glucose level, 300 min post sucrose load",[1],301.4 ± 12.1 mg/dL
same,"Blood glucose level, 1440 min post sucrose load",[1],408.0 ± 17.1 mg/dL
same,decrease in plasma insulin levels,db/db mice; 1.0 mg/kg oral,4.03%
same,enhancement of HDL-cholesterol level,db/db mice; 1.0 mg/kg oral,6.18%
same,lowering of serum triglycerides level (TG),db/db mice; 1.0 mg/kg oral,13.8%
same,lowering of total cholesterol (T-Chol) level,db/db mice; 1.0 mg/kg oral,13.3%
same,decrease in plasma insulin levels,db/db mice; 3.0 mg/kg oral,8.06%
same,enhancement of HDL-cholesterol level,db/db mice; 3.0 mg/kg oral,13.6%
same,lowering of serum triglycerides level (TG),db/db mice; 3.0 mg/kg oral,18.9%
same,lowering of total cholesterol (T-Chol) level,db/db mice; 3.0 mg/kg oral,16.7%
same,"blood glucose levels vs vehicle treated group, in words","db/db mice; 1.0 and 3.0 mg/kg oral, 15 consecutive days, FIG. 8",decline in their blood glucose levels
same,% Antihyperglycaemic activity (OGTT improvement),"db/db mice; day 10th, 1.0 mg/kg",10.3%
same,"Blood glucose profile, 0 min post glucose load","db/db mice; day 10th, 1.0 mg/kg",211.6 ± 11.8 mg/dL
same,"Blood glucose profile, 30 min post glucose load","db/db mice; day 10th, 1.0 mg/kg",559.8 ± 24.8 mg/dL
same,"Blood glucose profile, 60 min post glucose load","db/db mice; day 10th, 1.0 mg/kg",568.0 ± 12.9 mg/dL
same,"Blood glucose profile, 90 min post glucose load","db/db mice; day 10th, 1.0 mg/kg",502.8 ± 23.6 mg/dL
same,"Blood glucose profile, 120 min post glucose load","db/db mice; day 10th, 1.0 mg/kg",437.8 ± 14.1 mg/dL
same,decline in fasting blood glucose level,"db/db mice; day 10th, 1.0 mg/kg",~21.2%
same,% Antihyperglycaemic activity (OGTT improvement),"db/db mice; day 10th, 3.0 mg/kg",15.1%
same,"Blood glucose profile, 0 min post glucose load","db/db mice; day 10th, 3.0 mg/kg",190.2 ± 12.9 mg/dL
same,"Blood glucose profile, 30 min post glucose load","db/db mice; day 10th, 3.0 mg/kg",542.2 ± 24.1 mg/dL
same,"Blood glucose profile, 60 min post glucose load","db/db mice; day 10th, 3.0 mg/kg",523.2 ± 22.7 mg/dL
same,"Blood glucose profile, 90 min post glucose load","db/db mice; day 10th, 3.0 mg/kg",482.0 ± 20.5 mg/dL
same,"Blood glucose profile, 120 min post glucose load","db/db mice; day 10th, 3.0 mg/kg",414.0 ± 9.4 mg/dL
same,decline in fasting blood glucose level,"db/db mice; day 10th, 3.0 mg/kg",~29.1%
same,% Antihyperglycaemic activity (OGTT improvement),"db/db mice; day 15th, 1.0 mg/kg",16.9%
same,"Blood glucose profile, 0 min post glucose load","db/db mice; day 15th, 1.0 mg/kg",183.6 ± 7.86 mg/dL
same,"Blood glucose profile, 30 min post glucose load","db/db mice; day 15th, 1.0 mg/kg",499.2 ± 36.1 mg/dL
same,"Blood glucose profile, 60 min post glucose load","db/db mice; day 15th, 1.0 mg/kg",560.6 ± 14.6 mg/dL
same,"Blood glucose profile, 90 min post glucose load","db/db mice; day 15th, 1.0 mg/kg",468.8 ± 19.5 mg/dL
same,"Blood glucose profile, 120 min post glucose load","db/db mice; day 15th, 1.0 mg/kg",383.8 ± 8.46 mg/dL
same,decline in fasting blood glucose level,"db/db mice; day 15th, 1.0 mg/kg",around 25.5%
same,% Antihyperglycaemic activity (OGTT improvement),"db/db mice; day 15th, 3.0 mg/kg",24.5%
same,"Blood glucose profile, 0 min post glucose load","db/db mice; day 15th, 3.0 mg/kg",160.2 ± 6.88 mg/dL
same,"Blood glucose profile, 30 min post glucose load","db/db mice; day 15th, 3.0 mg/kg",458.8 ± 16.6 mg/dL
same,"Blood glucose profile, 60 min post glucose load","db/db mice; day 15th, 3.0 mg/kg",513.2 ± 13.1 mg/dL
same,"Blood glucose profile, 90 min post glucose load","db/db mice; day 15th, 3.0 mg/kg",420.0 ± 13.2 mg/dL
same,"Blood glucose profile, 120 min post glucose load","db/db mice; day 15th, 3.0 mg/kg",348.0 ± 13.2 mg/dL
same,decline in fasting blood glucose level,"db/db mice; day 15th, 3.0 mg/kg",~35.1%
same,enhancement of lipoprotein lipase,[2]; 30 mg/kg oral,19.4%
same,enhancement of serum HDL-cholesterol,[2]; 30 mg/kg oral,17.8%
same,lowering of LDL-cholesterol (LDL-C) level,[2]; 30 mg/kg oral,32.3%
same,lowering of non-esterified fatty acid (NEFA),[2]; 30 mg/kg oral,12.3%
same,lowering of serum glycerol level,[2]; 30 mg/kg oral,25.7%
same,lowering of serum triglycerides level (TG),[2]; 30 mg/kg oral,32.8%
same,lowering of total cholesterol (T-Chol) level,[2]; 30 mg/kg oral,23.1%
same,"Chol, change vs HFD control (in parentheses)","[2]; 30 mg/kg p.o., 7 days",(−23.1)* %
same,"Glycerol, change vs HFD control (in parentheses)","[2]; 30 mg/kg p.o., 7 days",(−25.7) %
same,"HDL-C, change vs HFD control (in parentheses)","[2]; 30 mg/kg p.o., 7 days",(+17.8) %
same,"LDL-C, change vs HFD control (in parentheses)","[2]; 30 mg/kg p.o., 7 days",(−32.3)* %
same,"Lipoprotein lipase, change vs HFD control (in parentheses)","[2]; 30 mg/kg p.o., 7 days",(+19.4) %
same,"NEFA, change vs HFD control (in parentheses)","[2]; 30 mg/kg p.o., 7 days",(−12.3) %
same,"TG, change vs HFD control (in parentheses)","[2]; 30 mg/kg p.o., 7 days",(−32.8)* %
same,Chol,"[2]; 30 mg/kg p.o., 7 days, serum",257.2 ± 22.4 mg/dL
same,Glycerol,"[2]; 30 mg/kg p.o., 7 days, serum",1004.9 ± 40.2 µmol/L
same,HDL-C,"[2]; 30 mg/kg p.o., 7 days, serum",168.2 ± 8.90 mg/dL
same,LDL-C,"[2]; 30 mg/kg p.o., 7 days, serum",179.6 ± 13.2 mg/dL
same,Lipoprotein lipase,"[2]; 30 mg/kg p.o., 7 days, serum",36.3 ± 3.90 U/L
same,NEFA,"[2]; 30 mg/kg p.o., 7 days, serum",5.70 ± 0.42 mmol/L
same,TG,"[2]; 30 mg/kg p.o., 7 days, serum",501.8 ± 45.7 mg/dL
same,"effect on body weight, in words","[2]; vs control group, FIG. 10",effectively inhibited the rise in body weight
